The values below come from patent publication US5108747A, “Stable oxpenem-3-carboxylic acids as beta-lactamase inhibitors” (Bayer Aktiengesellschaft, priority 1988, dated 1992).

Data set [1] concerns similar bacteria. Conditions: 25 μg applied, J. Amer. Chem. Soc. 100, 8004 (1978); cited from earlier work.
For data set [2] the following is noted: cited from earlier work.
Data set [3] relates to Staph. aureus DSM 1104. Kind of data set: agar diffusion test, Staph. aureus DSM 1104. The class given is cell-based, Staphylococcus aureus. As for the experimental part:
The compound IIIe designated as preferred in earlier patent applications (for example in EP 18,305) hydrolyzes in a few minutes and could never be transported efficiently by the blood vessel (pH 7.4, 37° C.) to the site of action undamaged. […] Using Staphylococcus aureus DSM 1104, only an inhibition halo of a few mm was determined in the agar diffusion test after applying 250 μg of IIIe.
(§1) Certain representatives are just as effective against gram-positive as against gram-negative bacteria and resistant bacteria.

Data set [4] can be described thus: Hydrolysis half life at pH 7.4, 37° C. in aqueous phosphate buffer (UV spectroscopy; measure of the stability). The settings on record: for half-life: aqueous phosphate buffer. The class given is physicochemical.
Data set [5] relates to bacteria. Briefly: antibacterial activity in vitro. The class given is cell-based.
Data set [6] deals with Staph. aureus 012484/77. Kind of data set: agar diffusion test, Staph. aureus 012484/77 (penicillin- and cephalosporin-resistant). The class given is cell-based, Staphylococcus aureus.
Text: as §1
(Agar diffusion results depend on both activity and mobility in agar.)

The subject of data set [7] is Escherichia coli DSM 1103. Briefly: agar diffusion test, Escherichia coli DSM 1103. The class given is cell-based.
Text: as §1

Data set [8] relates to Escherichia coli W 3110 R6K (TEM 1). Briefly: agar diffusion test, Escherichia coli W 3110 R6K (TEM 1) (β-lactamase-forming). The class given is cell-based.
Data set [9] concerns the target cephalosporinase of E. cloacae 908 R (Enterobacter cloacae, UniProt P05364). Kind of data set: in vitro inhibition of the cephalosporinase of E. cloacae 908 R. The class given is biochemical. The settings on record: relative to formiminothienamycin. From the text: A particular advantage of the oxapenem-3-carboxylic acids according to the invention is that in addition to the abovementioned properties of β-lactamase inhibition they are also themselves antibacterially active per se. It is true that substances having similar properties are known, for example formiminothienamycin (Lit.: Recent Advances in the Chemistry of β-Lactam Antibiotics, ed. by G.I. Gregory, The Royal Society, London, page 279 (1981)). However, the compounds according to the invention show a more rapid, more progressive and more irreversible inhibition of the lactamases with many clinically relevant bacteria. Thus, for example, the cephalosporinase of E. cloacae 908 R is inhibited 780 times more effectively in vitro by the 2-tert-butyl-6-hydroxymethyloxapenem-3-carboxylic acid K salt according to the invention than by formiminothienamycin.

Data set [10] concerns Beta lactamase from Pseudomonas aeruginosa W. Kind of data set: Degradation of mezlocillin by beta lactamase from Pseudomonas aeruginosa W and its prevention (agar hole test). The class given is biochemical. As for the experimental part:
(§2) Methods: the degradation of mezlocillin was determined with Streptococcus pyogenes W using the agar hole test, the sensitivity limits of which are below 1 mcg/ml.
(§3) Degradation of mezlocillin by beta lactamase and prevention of this degradation by oxapenem "O"

Data set [11] deals with T1, Beta lactamase from E. coli 4787 TEM 1 (Escherichia coli, UniProt P62593).
T1 construct: preparation not described in the excerpts
T1 sequence (P62593 24-286 limits assumed): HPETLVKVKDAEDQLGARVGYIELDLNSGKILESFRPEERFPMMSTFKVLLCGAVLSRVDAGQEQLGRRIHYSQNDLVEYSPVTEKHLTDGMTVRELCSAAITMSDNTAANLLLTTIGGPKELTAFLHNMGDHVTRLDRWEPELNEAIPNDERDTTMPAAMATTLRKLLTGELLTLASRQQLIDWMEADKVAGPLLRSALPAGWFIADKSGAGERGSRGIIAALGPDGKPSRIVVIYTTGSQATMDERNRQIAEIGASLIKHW
Kind of data set: Degradation of mezlocillin by beta lactamase from E. coli 4787 TEM 1 and its prevention (agar hole test). The class given is biochemical. Conditions: without oxapenem. As for the experimental part: as §2, §3

Data set [12] concerns Staphylococcus aureus 25, 455/1. Briefly: Decrease in the colony-forming capacity of Staphylococcus aureus 25, 455/1 in liquid nutrient medium. The class given is cell-based. Conditions: control 3.5 × 10^8. As for the experimental part: The colony-forming capacity of the bacteria was determined by plating out the bacteria on OXOID Iso Sensitest Agar. The two methods are international standard methods.
Synergistic effect of the combination. Decrease in the colony-forming capacity of Staphylococcus aureus 25, 455/1 by the action of mezlocillin in liquid nutrient medium.

The subject of data set [13] is intact bacteria. The settings on record: antibacterial activity or synergism with ampicillin; Morin and Gorman, page 383; cited from earlier work.
Data set [14] concerns bacteria. The settings on record: literature; cited from earlier work.
The test system of data set [15] is isolated bacterial enzymes (β-lactamases). Conditions: cited from earlier work.

Entries after “also recorded” stand apart in the source; their conditions may differ. Where a name gives a salt, the structure may show the parent alone. Read-outs that look alike come from different tables or passages of the source.

Chain of cephalosporinase of E. cloacae 908 R (P05364 21-381): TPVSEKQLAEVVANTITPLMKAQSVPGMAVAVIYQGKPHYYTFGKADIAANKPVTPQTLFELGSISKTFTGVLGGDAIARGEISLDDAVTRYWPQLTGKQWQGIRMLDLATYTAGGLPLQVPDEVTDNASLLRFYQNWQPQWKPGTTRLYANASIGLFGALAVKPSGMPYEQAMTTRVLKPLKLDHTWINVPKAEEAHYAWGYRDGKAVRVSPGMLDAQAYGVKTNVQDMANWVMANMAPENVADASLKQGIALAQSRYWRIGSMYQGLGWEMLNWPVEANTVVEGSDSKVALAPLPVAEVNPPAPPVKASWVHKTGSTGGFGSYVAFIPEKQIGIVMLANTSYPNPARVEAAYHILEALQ

Consider `C[C@@H](O)[C@H]1C(=O)N2C(C(=O)O)=C(SCCN)C[C@H]12` [thienamycin], for which the inhibition halo diameter in data set [1] is 28-41 mm. In addition, the “stability (in words)” value in data set [2] (literature) is listed as “very sensitive to hydrolysis”.

For `CC1=C(C(=O)O)N2C(=O)CC2O1` (stereo not shown) [IIIe], the “inhibition halo (in words)” value in [3] (250 μg applied) was “a few mm”. The “Hydrolysis half life (in words)” value in data set [4] is “a few minutes”. The “antibacterial efficacy (in words)” value in data set [5] was “virtually ineffective antibacterially”.

On to `CC1=C(C(=O)O)N2C(=O)C(C)(C)C2O1` (stereo not shown) [Compound IIId], for which, in [4], the half-life is 0.833 h.

Turning to `CC1(C)S[C@@H]2[C@H](NC(=O)COc3ccccc3)C(=O)N2[C@H]1C(=O)O` [Penicillin V], the “inhibition (in words)” value in data set [6] (130 μg applied) and in [8] (130 μg applied) was “not inhibited” each time. The zone of inhibition at 130 µg/disc in data set [3] (Staphylococcus aureus, DSM1104, read-out: inhibition halo diameter) amounted to 42 mm; in data set [7] (DSM1103, read-out: inhibition halo diameter), 13 mm.

Compound `CC(C)C1=C(C(=O)O)N2C(=O)C(C)(C)C2O1` (stereo not shown) [Compound IIIb] gave a half-life in [4] of 2 h.

`CCC1=C(C(=O)O)N2C(=O)C(C)(C)C2O1` (stereo not shown) [Compound IIIc] showed a half-life in data set [4] of 1.17 h.

Turning to `CC(C)(C)C1=C(C(=O)O)N2C(=O)C(CO)C2O1` (stereo not shown) [2-tert-butyl-6-hydroxymethyloxapenem-3-carboxylic acid K salt], in [9], the “inhibited times more effectively than by formiminothienamycin” value is reported as 780 times.

In the case of `CC1(C)S[C@@H]2[C@H](NC(=O)[C@H](NC(=O)N3CCN(S(C)(=O)=O)C3=O)c3ccccc3)C(=O)N2[C@H]1C(=O)O` [mezlocillin], the Mezlocillin remaining in data set [10] (reaction time 0 min, without oxapenem) worked out at 100 µg/mL; in [10] (reaction time 30 min, without oxapenem), 35 µg/mL; in data set [10] (reaction time 60 min, without oxapenem), 0 µg/mL; in [11] (reaction time 0 min) it was 100 µg/mL; in data set [11] (reaction time 30 min), 65 µg/mL; in data set [11] (reaction time 60 min), 43 µg/mL. The Mezlocillin remaining in data set [11] (reaction time 240 min) amounted to 0 µg/mL. Besides, in [12] (2.0 mcg alone), the “Number of colonies after an action time of 6 hrs” value is reported as 1.0 × 10^6 N/ml.

Turning to `CC(C)(C)C1=C(C(=O)O)N2C(=O)C[C@H]2O1` [2-tert-butyl-1-oxapen-2-em-3-carboxylic acid], the zone of inhibition at 200 µg/disc was found to be 47 mm in data set [6] (Staphylococcus aureus, 012484/77, 200 μg applied, read-out: inhibition halo diameter); 45 mm in [3] (Staphylococcus aureus, DSM1104, 200 μg applied, read-out: inhibition halo diameter); 41 mm in [7] (DSM1103, 200 μg applied, read-out: inhibition halo diameter).

As to `O=C(O)[C@H]1/C(=C/CO)O[C@@H]2CC(=O)N21` [clavulanic acid], the Mezlocillin remaining in data set [10] (reaction time 0 min, with 1 mcg of inhibitor) worked out at 100 µg/mL; in [10] (reaction time 0 min, with 10 mcg of inhibitor), 100 µg/mL; in data set [10] (reaction time 30 min, with 1 mcg of inhibitor) it was 40 µg/mL; in [10] (reaction time 30 min, with 10 mcg of inhibitor), 27 µg/mL; in [10] (reaction time 60 min, with 1 mcg of inhibitor) it was 0 µg/mL; in data set [10] (reaction time 60 min, with 10 mcg of inhibitor), 0 µg/mL. In addition, in data set [12] (0.1 mcg alone), the “Number of colonies after an action time of 6 hrs” value is on record as 1.0 × 10^8 N/ml.

Turning to `CC(C)(C)C1=C(C(=O)O)N2C(=O)C(C)(C)C2O1` (stereo not shown) [Compound IIIa, 2-tert-butyl-6.6-dimethyl-1-oxaoen-2-em-3-carboxylic acid], the half-life in [4] was 30 h.

In the case of `CCC1=C(C(=O)O)N2C(=O)CC2O1` (stereo not shown) [potassium salt of 2-ethyl-1-oxapenem-3-carboxylic acid], the “testability against intact bacteria (in words)” value in data set [13] is reported as “too unstable for testing the antibacterial activity or the synergism with ampicillin against intact bacteria; also recorded: too unstable for testing synergism with ampicillin against intact bacteria”.

Turning to `CCC1=C(C(=O)O)N2C(=O)C[C@H]2O1` [2-ethyl-1-oxapen-2-em-3-carboxylic acid], the “antibacterial efficacy (in words)” value in data set [14] is “virtually ineffective as an antibiotic”. In addition, the “inhibition of isolated bacterial enzymes (β-lactamases) (in words)” value in [15] was “Only an inhibition of isolated bacterial enzymes (β-lactamases) was detectable”. The “stability in aqueous medium (in words)” value in data set [2] (aqueous medium) was “far too unstable in aqueous medium for antibacterial testing”.

With `CC(C)(C)C1=C(C(=O)O)N2C(=O)C(CO)C2O1` (stereo not shown) [3-tert-butyl-6-hydroxymethyl-7-oxo-4-oxa-1-azabicyclo[3.2.0]hept-2-ene-2-carboxylic acid], the zone of inhibition at 10 µg/disc in [6] (Staphylococcus aureus, 012484/77, 10 μg applied, read-out: inhibition halo diameter) is 32 mm; in data set [3] (Staphylococcus aureus, DSM1104, 10 μg applied, read-out: inhibition halo diameter), 30 mm; in [7] (DSM1103, 10 μg applied, read-out: inhibition halo diameter), 30 mm. Further, the zone of inhibition at 10 µg in data set [8] (Escherichia coli, read-out: inhibition halo diameter) is 29 mm.

As usually defined, the half-life is how long it takes for the measured level to halve.
